Test results taken from EP4603105A1, “PHARMACEUTICAL COMPOSITION CONTAINING CYCLIC COMPOUND HAVING SELECTIVE KRAS INHIBITORY EFFECT AGAINST HRAS AND NRAS” (CHUGAI SEIYAKU KABUSHIKI KAISHA, priority 2022, dated 2024).
Read-outs that look alike come from different tables or passages of the source. *1 amine or outer side, *2 acyl side, *3 side chain or, on linkers, in order; H or OH if unused. Where a SMILES comes first, the peptide text is derived from it. Bridges are numbered along the chain shown (N, C = ends). [ ]: non-standard residue; d: D form. The star is where a group is joined. hPhe(3-Cl-4-CF3) = N[C@@H](CCc1ccc(C(F)(F)F)c(Cl)c1)C(=O)O; NPrPhe(4-CF3) = CCCN[C@@H](Cc1ccc(C(F)(F)F)cc1)C(=O)O; X13 = CCCN([C@@H](COC1CCC1)C(=O)[*:2])[*:1]; NMeGly(cPent) = CN[C@H](C(=O)O)C1CCCC1; NMeD = CN[C@@H](CC(=O)O)C(=O)O; NMeL = CN[C@@H](CC(C)C)C(=O)O; Morpholide = C1CN(*)CCO1; NMeA = CN[C@@H](C)C(=O)O; Ac5c = NC1(C(=O)O)CCCC1; Aze = O=C(O)[C@@H]1CCN1; Ac4c = NC1(C(=O)O)CCC1; Sar = CNCC(=O)O

Key:
[1] = molecular target: GDP-bound NRAS wild-type protein (Homo sapiens, UniProt P01111); assay: Binding to NRAS by surface plasmon resonance (SPR), KD and KD ratio to KRAS
Sequence of GDP-bound NRAS wild-type protein (P01111 whole entry): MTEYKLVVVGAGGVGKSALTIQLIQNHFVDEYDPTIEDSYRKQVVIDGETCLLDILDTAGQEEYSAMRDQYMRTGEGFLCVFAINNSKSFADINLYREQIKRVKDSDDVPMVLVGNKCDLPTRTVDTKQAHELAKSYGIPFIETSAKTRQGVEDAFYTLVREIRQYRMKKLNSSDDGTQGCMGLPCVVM
Outline: (§1)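 GDP-bound biotin-Avi RAS captured at ~100–300 RU, 30°C, pH 7.4 HBS containing 10 µM GDP, 10 mM MgCl2, 1 mM DTT, 0.01% Tween 20 and 4% DMSO. KD by 1:1 fitting.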

HRAS wild-type protein = HRAS wild-type protein (Homo sapiens, UniProt P01112); assay: Binding to HRAS by surface plasmon resonance (SPR), KD and KD ratio to KRAS
Sequence of HRAS wild-type protein (P01112 whole entry): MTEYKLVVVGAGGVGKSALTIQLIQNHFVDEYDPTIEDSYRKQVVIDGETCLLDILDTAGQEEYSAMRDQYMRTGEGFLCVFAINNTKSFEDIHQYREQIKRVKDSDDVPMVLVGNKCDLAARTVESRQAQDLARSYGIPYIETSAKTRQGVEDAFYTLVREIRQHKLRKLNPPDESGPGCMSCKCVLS
Outline: as §1

[2] = system: human lung cancer strain NCI-H441; format: cell-based
Outline: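 Readout: […] after the ATP-based reagent. Compound: serial dilutions in dimethyl sulfoxide.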

[3] = ratio of the KD value with respect to GDP-bound NRAS wild-type protein to the KD value with respect to KRAS
[4] = ratio of the KD value with respect to HRAS wild-type protein to the KD value with respect to KRAS
[5] = ratio of KD for GDP-bound NRAS wild-type protein to KD for KRAS
[6] = ratio of KD for HRAS wild-type protein to KD for KRAS
[7] = ratio of KD value for GDP-bound NRAS wild-type protein to KD value for KRAS (SPR)
[8] = ratio of KD value for HRAS wild-type protein to KD value for KRAS (SPR)

Row | Compound | IC50 [2] | NRAS /KRAS [1, 3] | HRAS /KRAS (HRAS wild-type protein; [4]) | NRAS /KRAS [1, 5] | HRAS /KRAS (HRAS wild-type protein; [6]) | NRAS /KRAS [1, 7] | HRAS /KRAS (HRAS wild-type protein; [8]) | IC50 ([2]; NCI-H441 cells, 4 days, CellTiter-Glo, read-out: NCl-H441 IC50)
1 | CC[C@H](C)[C@@H]1NC(=O)[C@H](CC(C)C)N(CC)C(=O)C[C@@H](C(=O)N2CCOCC2)N(C)C(=O)[C@H](C2CCCC2)N(C)C(=O)C2(CCCC2)NC(=O)[C@@H]2CCCN2C(=O)[C@H](CCc2cc(F)c(C(F)(F)F)c(F)c2)NC(=O)CN(C)C(=O)[C@H](Cc2ccc(C(F)(F)F)cc2)N2CCCCC[C@@H](C2=O)N(C)C(=O)CN(C)C1=O [PP0513] | 0.238 µM | B (a compound having 3 or more and less than 10 is denoted as B) | B (a compound having 3 or more and less than 10 is denoted as B) |  |  |  |  | 
2 | CCCN1C(=O)CN(C)C(=O)CN(C)C(=O)[C@H]([C@@H](C)CC)NC(=O)[C@H](CC(C)C)N(C)C(=O)C[C@@H](C(=O)N2CCOCC2)N(C)C(=O)[C@H](C2CCCC2)N(C)C(=O)C2(CCC2)NC(=O)[C@@H]2CCCN2C(=O)[C@H](CCc2ccc(C(F)(F)F)c(Cl)c2)NC(=O)CN(C)C(=O)[C@@H]1COC1CCC1 [PP1816] ([NMeL]I[Sar][Sar][X13][Sar][hPhe(3-Cl-4-CF3)]P[Ac4c][NMeGly(cPent)][NMeD]-Morpholide; lactam N-11) | 0.0638 µM |  |  |  |  | B (a compound having 3 or more and less than 10 is denoted as B) | C (A compound having a KD ratio of 0.1 or more and less than 3 is denoted as C) | 
3 | CCOC[C@H]1C(=O)N[C@@H]([C@@H](C)CC)C(=O)N(C)CC(=O)N(C)[C@H]2C/C=C\CCN(C2=O)[C@@H](Cc2ccc(OC)cc2)C(=O)N(C)CC(=O)N[C@@H](CCc2ccc(C(F)(F)F)c(OC)c2)C(=O)N2C[C@@H](C)C[C@H]2C(=O)NC2(CC(C)(C)C2)C(=O)N(C)[C@@H](C2CCCC2)C(=O)N(C)[C@H](C(=O)N(C)CC)CC(=O)N1C [PP2702] |  |  |  | A (a compound having 10 or more and less than 20 is denoted as A) | B (a compound having 3 or more and less than 10 is denoted as B) |  |  | 0.0214 µM

The next lines start with results.

Row | IC50 [2] | Compound | NRAS /KRAS [1, 3] | HRAS /KRAS (HRAS wild-type protein; [4]) | NRAS /KRAS [1, 5] | HRAS /KRAS (HRAS wild-type protein; [6]) | NRAS /KRAS [1, 7] | HRAS /KRAS (HRAS wild-type protein; [8]) | IC50 ([2]; NCI-H441 cells, 4 days, CellTiter-Glo, read-out: NCl-H441 IC50)
4 | 0.0085 µM | CCCC[C@H]1C(=O)N[C@@H]([C@@H](C)CC)C(=O)N(C)CC(=O)N(C)[C@H]2C/C=C\CCN(C2=O)[C@@H](Cc2ccc(C)cc2)C(=O)N(C)CC(=O)N[C@@H](CCc2cc(F)c(C(F)(F)F)c(F)c2)C(=O)N2C[C@H](OCC)C[C@H]2C(=O)NC2(CCC2)C(=O)N(C)[C@@H](C2CCCC2)C(=O)N(C)[C@H](C(=O)N(C)C)CC(=O)N1C [PP2798] |  |  | A (a compound having 10 or more and less than 20 is denoted as A) | A (a compound having 10 or more and less than 20 is denoted as A) |  |  | 
5 | 0.0064 µM | CCCN(C)C(=O)[C@@H]1CC(=O)N(C)[C@@H](CC)C(=O)N[C@@H]([C@@H](C)CC)C(=O)N(C)CC(=O)N(C)[C@H]2C/C=C\CCN(C2=O)[C@@H](Cc2ccc(C(F)(F)F)cc2)C(=O)N(C)CC(=O)N[C@@H](CCc2cc(F)c(C(F)(F)F)c(F)c2)C(=O)N2C[C@H](OCC)C[C@H]2C(=O)NC2(CC(F)(F)C2)C(=O)N(C)[C@@H](C2CCCC2)C(=O)N1C [PP1732] |  |  |  |  | AA (a compound having 20 or more is denoted as AA) | A (a compound having 10 or more and less than 20 is denoted as A) | 
6 | 0.0015 µM | CCCN1C(=O)[C@@H]2CCN2C(=O)[C@H](C)N(C)C(=O)[C@H]([C@@H](C)CC)NC(=O)[C@H](CC(C)C)N(C)C(=O)C[C@@H](C(=O)N(C)C)N(C)C(=O)[C@H](C2CCCC2)N(C)C(=O)C2(CCCC2)NC(=O)[C@@H]2CCCN2C(=O)[C@H](CCc2ccc(C(F)(F)F)c(Cl)c2)NC(=O)CN(C)C(=O)[C@@H]1Cc1ccc(C(F)(F)F)cc1 [PP0178] ([NMeL]I[NMeA][Aze][NPrPhe(4-CF3)][Sar][hPhe(3-Cl-4-CF3)]P[Ac5c][NMeGly(cPent)][NMeD]-NMe2; lactam N-11) |  |  | C (A compound having a KD ratio of 0.1 or more and less than 3 is denoted as C) | B (a compound having 3 or more and less than 10 is denoted as B) |  |  | 
7 | 0.0344 µM | CCO[C@@H]1C[C@H]2C(=O)NC3(CCC3)C(=O)N(C)[C@@H](C3CCCC3)C(=O)N(C)[C@H](C(=O)N3CCOCC3)CC(=O)N(C)[C@@H](COC)C(=O)N[C@@H]([C@@H](C)CC)C(=O)N(C)CC(=O)N(C)[C@H]3CCCCCN(C3=O)[C@@H](Cc3ccc(C(F)(F)F)cc3)C(=O)N(C)CC(=O)N[C@@H](CCc3cc(F)c(C(F)(F)F)c(F)c3)C(=O)N2C1 [PP0689] | B (a compound having 3 or more and less than 10 is denoted as B) | B (a compound having 3 or more and less than 10 is denoted as B) |  |  |  |  | 
